Source: patent publication US7759385B2, “4-substituted 1-aminocyclohexane compounds for utilization as ORL1-receptor and mu-opiate receptor ligands” (priority 2002, dated 2010)

Biological target: human μ opiate receptor (Homo sapiens, UniProt P35372)
Assay: μ opiate receptor binding assay, membrane preparation of CHO-K1 cells, [3H]-naloxone (or DAMGO) displacement
Details: radioligand [3H]-naloxone 1 nmole/l; Cheng-Prusoff

Chain of human μ opiate receptor (P35372 whole entry): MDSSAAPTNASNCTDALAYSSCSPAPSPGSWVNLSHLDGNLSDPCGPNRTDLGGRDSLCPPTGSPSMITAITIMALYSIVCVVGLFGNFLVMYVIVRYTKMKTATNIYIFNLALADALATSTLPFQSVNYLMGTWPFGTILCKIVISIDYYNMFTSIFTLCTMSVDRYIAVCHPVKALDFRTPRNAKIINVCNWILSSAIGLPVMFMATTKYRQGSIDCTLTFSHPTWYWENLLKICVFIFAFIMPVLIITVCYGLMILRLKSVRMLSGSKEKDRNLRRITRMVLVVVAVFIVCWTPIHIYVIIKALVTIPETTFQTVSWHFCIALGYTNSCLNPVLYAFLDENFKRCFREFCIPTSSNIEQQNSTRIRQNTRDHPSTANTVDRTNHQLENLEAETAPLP

CN(C)C1(c2ccccc2)CCC(NC(=O)N2CCC(C3C=Nc4ccc(F)cc43)CC2)CC1 (stereo not shown) [Example 34, 4-(5-fluoro-1H-indol-3-yl)piperidine-1-carboxylic acid-(4-dimethylamino-4-phenylcyclohexyl)-amide]
Ki: 0.12 µM
